# Assay results published in ChEMBL document CHEMBL5370643, “Discovery of MK-1468: A Potent, Kinome-Selective, Brain-Penetrant Amidoisoquinoline LRRK2 Inhibitor for the Potential Treatment of Parkinson's Disease” (J Med Chem, 2023).
# Columns and labels:
# [1] = Toxicity in Wistar-Han rat assessed as body weight loss at 750 mg/kg, po administered once daily for 7 days; type: organism-based; details: in vivo, 168 h, time 7 day
# [2] = target: Leucine-rich repeat serine/threonine-protein kinase 2 (Homo sapiens, UniProt Q5S007, G2019S); assay: Inhibition of recombinant N-terminal GST-fused LRRK2 […] mutant (970 to 2527 residues) (unknown origin) using LRRKtide peptide as substrate assessed as inhibition of substrate phosphorylation preincubated with compound for 15 mins followed by substrate addition and measured after 90 mins in presence of ATP by TR-FRET assay
# [3] = Cardiotoxicity in iv dose guinea pig assessed as increase in QTc interval at high dose administered continuously for 20 min by ECG analysis; type: toxicity, organism-based, Cavia porcellus; details: in vivo
# [4] = tested on: rat Mdrl1 P-gp; assay: Efflux ratio of apparent permeability across basolateral to apical over apical to basolateral side in MDCK cells transfected with rat Mdrl1 P-gp incubated for 3 hrs by LC-MS/MS analysis; details: dog, MDCK-MDR1
# [5] = tested on: mouse BCRP; assay: Efflux ratio of apparent permeability across basolateral to apical over apical to basolateral side in MDCK-II cells transfected with mouse BCRP incubated for 3 hrs by LC-MS/MS analysis; details: dog
# [6] = target: Voltage-gated inwardly rectifying potassium channel KCNH2 (Homo sapiens, UniProt Q12809); assay: Inhibition of hERG expressed in CHO cells by QPatch voltage clamp assay
# [7] = Oral bioavailability in Wistar-Han rat at 5 mg/kg measured after 24 hrs by LC-MS/MS analysis; type: ADME, organism-based; details: in vivo
# [8] = Intrinsic clearance in Wistar-Han rat at 3 mg/kg, iv measured after 24 hrs by LC-MS/MS analysis; type: ADME, organism-based; details: in vivo
# [9] = MRT in Wistar-Han rat at 3 mg/kg, iv measured after 24 hrs by LC-MS/MS analysis; type: ADME, organism-based; details: in vivo
# [10] = Total clearance in Beagle dog at 0.5 mg/kg, iv measured after 24 hrs by LC-MS/MS analysis; type: ADME, organism-based, Canis lupus familiaris; details: in vivo
# [11] = MRT in Beagle dog at 0.5 mg/kg, iv measured after 24 hrs by LC-MS/MS analysis; type: ADME, organism-based, Canis lupus familiaris; details: in vivo
# [12] = Oral bioavailability in Beagle dog at 5 mg/kg measured after 24 hrs by LC-MS/MS analysis; type: ADME, organism-based, Canis lupus familiaris; details: in vivo
# [13] = Protein binding in human plasma incubated for 4 hrs by equilibrium dialysis method; type: ADME, cell-free; details: read-out: PPB (converted)
# [14] = Protein binding in rat plasma incubated for 4 hrs by equilibrium dialysis method; type: ADME, cell-free; details: read-out: PPB (converted)
# [15] = Protein binding in rhesus monkey plasma incubated for 4 hrs by equilibrium dialysis method; type: ADME, cell-free, Macaca mulatta; details: read-out: PPB (converted)
# [16] = Kinetic solubility of compound in FaSSIF at pH 6.5 measured after 24 hrs by UPLC/DAD analysis; type: physicochemical; details: read-out: Kinetic_solubility
# [17] = Mutagenicity in Salmonella typhimurium TA98 at 30 to 5000 ug/plate incubated for 48 hrs in absence of Wistar-Han rat S9 fraction by Ames test; type: toxicity; details: salmonella enterica subsp. enterica serovar typhimurium, s9, 48 h
# [18] = Mutagenicity in Salmonella typhimurium TA1535 at 30 to 5000 ug/plate incubated for 48 hrs in presence of Wistar-Han rat S9 fraction by Ames test; type: toxicity, subcellular; details: salmonella enterica subsp. enterica serovar typhimurium, s9, 48 h
# [19] = Mutagenicity in Salmonella typhimurium TA98 at 30 to 5000 ug/plate incubated for 48 hrs in presence of Wistar-Han rat S9 fraction by Ames test; type: toxicity, subcellular; details: salmonella enterica subsp. enterica serovar typhimurium, s9, 48 h
# [20] = Unbound drug concentration in guinea pig plasma at 5 mg/kg, iv administered continuously for 20 mins; type: ADME, organism-based, Cavia porcellus; details: in vivo
# [21] = Unbound drug concentration in guinea pig plasma at 20 mg/kg, iv administered continuously for 20 mins; type: ADME, organism-based, Cavia porcellus; details: in vivo
# [22] = Cardiotoxicity in guinea pig assessed as effect on PR interval at 5 to 20 mg/kg, iv administered continuously for 20 min by ECG analysis; type: toxicity, organism-based, Cavia porcellus; details: in vivo, dose 5-20 mg/kg
# [23] = Cardiotoxicity in guinea pig assessed as effect on QRS interval at 5 to 20 mg/kg, iv administered continuously for 20 min by ECG analysis; type: toxicity, organism-based, Cavia porcellus; details: in vivo, dose 5-20 mg/kg
# [24] = Cardiotoxicity in guinea pig assessed as effect on heart rate at 5 to 20 mg/kg, iv administered continuously for 20 min by ECG analysis; type: toxicity, organism-based, Cavia porcellus; details: in vivo, dose 5-20 mg/kg
# [25] = Genotoxicity in human TK6 cells assessed as induction of DNA damage upto 31.9 uM; type: toxicity, cell-based; details: tk6, 31.9 µM
# [26] = Genotoxicity in CHO-WBL cells incubated for 3 to 24 hrs in presence or absence of rat liver S9 fraction by micronucleus assay; type: toxicity, Cricetulus griseus; details: chinese hamster, time 3-24 hrs
# [27] = tested on: Rattus norvegicus; assay: In vivo inhibition of LRRK2 in po dosed Wistar-Han rat assessed as reduction in Ser935 phosphorylation in stratium measured after 2 hrs; type: functional, organism-based; details: dose 1-100 mg/kg
# [28] = tested on: Brain; assay: In vivo inhibition of LRRK2 in Wistar-Han rat assessed as reduction in Ser935 phosphorylation in brain at 1 to 100 mg/kg, po measured after 2 hrs; type: functional; details: dose 1-100 mg/kg
# [29] = tested on: PBMC; assay: Inhibition of LRRK2 in rat PBMC assessed as Ser935 dephosphorylation; type: cell-based
# [30] = Toxicity in Wistar-Han rat assessed as effect on diastolic blood pressure at 60 mg/kg, po administered as single dose and measured upto 24 hrs by telemetric analysis; type: organism-based; details: in vivo
# [31] = Toxicity in Wistar-Han rat assessed as effect on mean blood pressure at 60 mg/kg, po administered as single dose and measured upto 24 hrs by telemetric analysis; type: organism-based; details: in vivo
# [32] = Toxicity in Wistar-Han rat assessed as effect on heart rate at 60 mg/kg, po administered as single dose and measured upto 24 hrs by telemetric analysis; type: organism-based; details: in vivo
# [33] = Toxicity in Wistar-Han rat assessed as effect on arterial pulse pressure at 225 mg/kg, po administered as single dose and measured upto 24 hrs by telemetric analysis; type: organism-based; details: in vivo
# [34] = Toxicity in po dosed Wistar-Han rat assessed as NOAEL measured upto 24 hrs; type: organism-based; details: in vivo, read-out: Activity
# [35] = AUC in Wistar-Han rat at 40 mg/kg, po administered once daily for 7 days; type: ADME, organism-based; parameters: dose 40 mg/kg, time 7 day, route po; details: in vivo
# [36] = AUC in Wistar-Han rat at 225 mg/kg, po administered once daily for 7 days; type: ADME, organism-based; parameters: time 7 day, dose 225 mg/kg, route po; details: in vivo
# [37] = AUC in Wistar-Han rat at 750 mg/kg, po administered once daily for 7 days; type: ADME, organism-based; parameters: dose 750 mg/kg, time 7 day, route po; details: in vivo
# [38] = Toxicity in Wistar-Han rat assessed as squamous hyperplasia of nonglandular stomach at 750 mg/kg, po administered once daily for 7 days; type: organism-based; details: in vivo, 168 h, time 7 day
# [39] = AUC in rhesus monkey at 100 mg/kg, po administered once daily for 7 days; type: ADME, organism-based, Macaca mulatta; parameters: dose 100 mg/kg, time 7 day, route po; details: in vivo
# [40] = Toxicity in rhesus monkey assessed as clinical observation at 100 to 800 mg/kg, po administered once daily for 7 days; type: organism-based, Macaca mulatta; details: in vivo, 168 h, dose 100-800 mg/kg, time 7 day
# [41] = In vivo inhibition of LRRK2 in rhesus monkey assessed as reduction in Ser935 phosphorylation in blood PBMC at 100 to 800 mg/kg, po administered once daily for 7 days; type: functional, Macaca mulatta; details: dose 100-800 mg/kg, time 7 day
# [42] = In vivo inhibition of LRRK2 in rhesus monkey assessed as reduction in Ser935 phosphorylation in brain at 100 to 800 mg/kg, po administered once daily for 7 days; type: functional, Macaca mulatta; details: dose 100-800 mg/kg, time 7 day
# Leucine-rich repeat serine/threonine-protein kinase 2, sequence (Q5S007 whole entry G2019S, the tested form may be a part): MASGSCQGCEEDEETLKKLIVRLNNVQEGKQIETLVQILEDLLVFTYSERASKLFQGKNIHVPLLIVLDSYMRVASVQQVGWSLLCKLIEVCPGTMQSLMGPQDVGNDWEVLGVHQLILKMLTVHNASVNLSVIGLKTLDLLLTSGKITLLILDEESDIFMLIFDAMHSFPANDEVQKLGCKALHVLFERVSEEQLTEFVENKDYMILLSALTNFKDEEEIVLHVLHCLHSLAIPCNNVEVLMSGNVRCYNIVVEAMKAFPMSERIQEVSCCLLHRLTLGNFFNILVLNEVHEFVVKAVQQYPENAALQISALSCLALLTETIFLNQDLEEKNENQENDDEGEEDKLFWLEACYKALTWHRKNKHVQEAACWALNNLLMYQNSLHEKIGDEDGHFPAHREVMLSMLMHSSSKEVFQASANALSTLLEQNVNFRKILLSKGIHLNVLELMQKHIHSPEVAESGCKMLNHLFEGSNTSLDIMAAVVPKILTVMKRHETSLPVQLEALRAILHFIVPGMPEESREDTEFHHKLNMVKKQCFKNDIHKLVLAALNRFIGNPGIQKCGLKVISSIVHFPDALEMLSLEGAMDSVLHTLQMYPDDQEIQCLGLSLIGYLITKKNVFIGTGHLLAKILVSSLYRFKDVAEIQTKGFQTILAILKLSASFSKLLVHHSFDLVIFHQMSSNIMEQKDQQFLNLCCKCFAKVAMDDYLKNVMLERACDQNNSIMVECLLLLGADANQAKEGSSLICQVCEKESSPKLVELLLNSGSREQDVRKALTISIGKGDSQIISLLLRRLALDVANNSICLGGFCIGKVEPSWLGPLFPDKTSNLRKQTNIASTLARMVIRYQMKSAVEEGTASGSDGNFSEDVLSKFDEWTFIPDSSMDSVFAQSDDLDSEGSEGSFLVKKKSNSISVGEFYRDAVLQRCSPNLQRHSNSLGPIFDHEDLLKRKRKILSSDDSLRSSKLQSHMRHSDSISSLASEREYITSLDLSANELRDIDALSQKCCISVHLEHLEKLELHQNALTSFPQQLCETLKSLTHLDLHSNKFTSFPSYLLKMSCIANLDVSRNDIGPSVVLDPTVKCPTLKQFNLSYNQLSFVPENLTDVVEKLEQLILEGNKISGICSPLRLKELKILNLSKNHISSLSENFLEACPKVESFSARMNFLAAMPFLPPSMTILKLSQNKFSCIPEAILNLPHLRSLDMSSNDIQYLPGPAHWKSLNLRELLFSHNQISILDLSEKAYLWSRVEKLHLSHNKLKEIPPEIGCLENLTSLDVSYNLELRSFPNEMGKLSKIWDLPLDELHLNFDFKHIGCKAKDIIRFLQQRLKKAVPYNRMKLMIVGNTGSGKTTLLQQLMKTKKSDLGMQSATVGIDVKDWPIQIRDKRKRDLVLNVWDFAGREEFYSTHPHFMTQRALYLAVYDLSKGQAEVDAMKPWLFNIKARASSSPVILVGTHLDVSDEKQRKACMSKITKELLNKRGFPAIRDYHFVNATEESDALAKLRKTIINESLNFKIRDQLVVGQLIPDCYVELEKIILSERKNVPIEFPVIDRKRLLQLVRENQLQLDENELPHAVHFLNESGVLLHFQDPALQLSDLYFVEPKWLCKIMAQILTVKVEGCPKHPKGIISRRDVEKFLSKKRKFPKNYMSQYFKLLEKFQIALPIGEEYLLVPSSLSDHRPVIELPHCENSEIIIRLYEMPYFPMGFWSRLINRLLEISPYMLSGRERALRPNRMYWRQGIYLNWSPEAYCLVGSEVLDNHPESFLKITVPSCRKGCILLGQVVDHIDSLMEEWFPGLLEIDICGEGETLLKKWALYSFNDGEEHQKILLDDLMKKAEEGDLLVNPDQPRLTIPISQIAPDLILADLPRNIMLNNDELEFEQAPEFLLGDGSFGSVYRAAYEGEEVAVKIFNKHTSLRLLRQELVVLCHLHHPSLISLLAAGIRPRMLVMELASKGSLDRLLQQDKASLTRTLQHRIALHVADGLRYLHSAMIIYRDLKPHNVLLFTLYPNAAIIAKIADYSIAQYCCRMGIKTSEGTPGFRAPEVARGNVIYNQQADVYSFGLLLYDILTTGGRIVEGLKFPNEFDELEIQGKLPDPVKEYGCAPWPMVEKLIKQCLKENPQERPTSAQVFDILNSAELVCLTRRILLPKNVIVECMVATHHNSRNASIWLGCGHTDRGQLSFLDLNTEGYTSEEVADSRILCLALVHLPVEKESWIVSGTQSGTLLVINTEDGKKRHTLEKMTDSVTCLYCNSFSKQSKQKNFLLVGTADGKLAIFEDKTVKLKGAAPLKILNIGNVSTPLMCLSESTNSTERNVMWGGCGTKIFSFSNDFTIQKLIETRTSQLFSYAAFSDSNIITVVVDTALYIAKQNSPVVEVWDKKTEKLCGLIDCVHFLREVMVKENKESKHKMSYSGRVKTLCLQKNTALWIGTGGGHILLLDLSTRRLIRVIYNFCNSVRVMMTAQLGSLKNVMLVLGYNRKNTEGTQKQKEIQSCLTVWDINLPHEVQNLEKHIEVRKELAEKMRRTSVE
# Voltage-gated inwardly rectifying potassium channel KCNH2, sequence (Q12809 whole entry): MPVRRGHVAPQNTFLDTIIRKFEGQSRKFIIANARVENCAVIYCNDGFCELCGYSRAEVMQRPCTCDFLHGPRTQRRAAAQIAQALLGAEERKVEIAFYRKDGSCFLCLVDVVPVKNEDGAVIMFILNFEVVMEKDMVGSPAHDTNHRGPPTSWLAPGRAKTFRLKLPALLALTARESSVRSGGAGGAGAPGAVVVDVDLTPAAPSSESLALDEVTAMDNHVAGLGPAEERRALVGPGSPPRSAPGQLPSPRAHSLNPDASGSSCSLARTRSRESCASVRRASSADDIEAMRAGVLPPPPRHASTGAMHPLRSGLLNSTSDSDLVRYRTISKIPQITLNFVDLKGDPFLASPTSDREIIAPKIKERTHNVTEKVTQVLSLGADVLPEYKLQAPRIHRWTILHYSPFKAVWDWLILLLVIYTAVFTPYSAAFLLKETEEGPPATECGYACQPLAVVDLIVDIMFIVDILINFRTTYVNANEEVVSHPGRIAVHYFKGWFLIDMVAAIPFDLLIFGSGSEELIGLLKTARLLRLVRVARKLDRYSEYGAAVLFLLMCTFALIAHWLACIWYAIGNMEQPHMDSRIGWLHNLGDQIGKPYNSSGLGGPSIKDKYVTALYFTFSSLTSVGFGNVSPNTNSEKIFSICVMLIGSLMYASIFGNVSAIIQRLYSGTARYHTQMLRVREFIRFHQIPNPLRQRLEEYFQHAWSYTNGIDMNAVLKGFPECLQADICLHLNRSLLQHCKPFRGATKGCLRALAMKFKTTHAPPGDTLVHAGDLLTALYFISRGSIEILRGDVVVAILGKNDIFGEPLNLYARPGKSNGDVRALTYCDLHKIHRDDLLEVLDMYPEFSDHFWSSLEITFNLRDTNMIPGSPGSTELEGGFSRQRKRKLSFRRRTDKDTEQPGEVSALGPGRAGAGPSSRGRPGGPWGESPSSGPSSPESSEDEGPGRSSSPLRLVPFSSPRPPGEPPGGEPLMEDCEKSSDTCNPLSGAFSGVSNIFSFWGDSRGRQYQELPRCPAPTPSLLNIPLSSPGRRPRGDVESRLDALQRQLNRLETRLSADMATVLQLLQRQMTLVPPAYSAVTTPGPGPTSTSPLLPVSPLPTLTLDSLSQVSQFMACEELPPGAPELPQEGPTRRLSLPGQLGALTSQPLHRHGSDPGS
smiles,measurement,setting,value
C[C@@]1(N2CCN(c3cc4cc(NC(=O)[C@H]5CC56CCOCC6)ncc4cc3Cl)CC2)COC[C@@H]1O,Activity,[1],Toxic
same,IC50,[2],0.4 nM
same,Activity,[3],Toxic
same,efflux ratio at 3 h,[4],2.1
same,efflux ratio at 3 h,[5],2.6
same,IC50,[6],> 60000 nM
same,bioavailability,[7],56%
same,CL,[8],1435 mL/min/kg
same,MRT,[9],2.2 h
same,clearance,[10],11 mL/min/kg
same,MRT,[11],29 h
same,bioavailability,[12],100%
same,fraction unbound at 4 h,[13],0.131
same,fraction unbound at 4 h,[14],0.115
same,fraction unbound at 4 h,[15],0.12
same,solubility kinetic at 24 h,[16],6 µM
same,Activity,[17],Non-Toxic
same,Activity,[18],Non-Toxic
same,Activity,[19],Non-Toxic
same,Cp(f),[20],1.29 µM
same,Cp(f),[21],11.9 µM
same,Activity,[22],Non-Toxic
same,Activity,[23],Non-Toxic
same,Activity,[24],Non-Toxic
same,Activity,[25],Non-Toxic
same,Activity,[26],Non-Toxic
same,inhibition,[27],Dose-Dependent Effect
same,fIC50,[28],33 nM
same,fIC50,[29],25 nM
same,Activity,[30],Non-Toxic
same,Activity,[31],Non-Toxic
same,Activity,[32],Non-Toxic
same,Activity,[33],Non-Toxic
same,NOAEL at 24 h,[34],60 mg/kg
same,AUC at 168 h,[35],8.1 µM·h
same,AUC at 168 h,[36],88 µM·h
same,AUC at 168 h,[37],395 µM·h
same,Activity,[38],Toxic
same,AUC at 168 h,[39],14 µM·h
same,Activity,[40],Non-Toxic
same,fIC50,[41],4.7 nM
same,fIC50,[42],7 nM
